The values below come from patent US12304912B2, “Fused bicyclic RAF inhibitors and methods for use thereof” (Jazz Pharmaceuticals Ireland Limited, priority 2020, dated 2025).

In brackets after ≈: the same amount, converted by molar mass. Like-named read-outs stand apart in the source and are kept apart here. Bounds are passed on as bounds.

Data set [1] can be described thus: Solubility (Sol), medium not stated. In kind it is physicochemical. To be noted: cells not marked (FESSIF).
Data set [2] can be described thus: Microsomal stability assay, mouse liver microsomes (MLM). In kind it is in vitro ADME. To be noted: 0.5 mg/mL protein, 1 μM substrate. The procedure:
(§1) Microsomal Stability Assay
(§2) The stability studies were performed manually using the substrate depletion approach. Test compounds were incubated at 37° C. with cryo-preserved mouse or human liver microsomes (Corning) at a protein concentration of 0.5 mg·mL^−1 and a final substrate concentration of 1 μM. Aliquots were removed from the incubation at defined timepoints and the reaction was terminated by adding to ice-cold organic solvent. Compound concentrations were determined by LC-MS/MS analysis. The natural log of the percentage of compound remaining was plotted against each time point and the slope determined. The half-life (t1/2) and CLint were calculated using Equations 1 and 2, respectively.
(§3) HLM (human liver microsomes) and MLM (mouse liver microsomes) stability assay results are described in Tables 1-2.
In general terms: Liver microsomes are a subcellular fraction often used to study metabolism.

Data set [3] has as its system constitutive ERK phosphorylation in HCT-116 cells. Nature of the data set: HCT-116 AlphaLISA SureFire pERK1/2 cellular assay. Type of data set: cell-based, human. The settings on record: Homo sapiens, read-out: pERK HCT116 (2 hr) Abs pIC50 (converted). As for the experimental part:
HCT-116 AlphaLISA SureFire pERK1/2 Cellular Assay […] […] Assay read outs took place 2 or 24 hours after dosing with compounds. On the first day, HCT-116 cells were harvested, resuspended in growth medium (McCoys5A with Glutamax (Life Technologies 36600021) and 10% heat-inactivated fetal bovine serum (Sigma F9665)), and counted. Cells were plated in 100 μl per well in each well of a 96-well culture dish (Sigma CLS3598) to a final density of 30,000 (2 hr read) or 15,000 (24 hr read) cells per well and incubated over night at 37° C. and 5% CO2. On day 2, the growth medium was exchanged for dosing medium (McCoys5A with Glutamax (Life Technologies 36600021) and 1% heat-inactivated fetal bovine serum (Sigma F9665)) and the cells were dosed with compounds to produce a 10-point dose response, where the top concentration was 1 μM and subsequent concentrations were at 1/3 log dilution intervals. A matched DMSO control was included. The cells were subsequently incubated for either 2 or 24 hours at 37° C. and 5% CO2. After incubation, media was removed and the cells were incubated with lysis buffer containing phosphatase inhibitors for 15 minutes at room temperature. Cell lysates were transferred to a 12 area 96 well white Optiplate™ (Perkin Elmer 6005569) and incubated with anti-mouse IgG acceptor beads, a biotinylated anti-ERK1/2 rabbit antibody recognizing both phosphorylated and non-phosphorylated ERK1/2, a mouse antibody targeted to the Thr202/Tyr204 epitope and recognizing phosphorylated ERK proteins only, and streptavidin-coated donor beads. The biotinylated antibody binds to the streptavidin-coated donor beads and the phopsho-ERK1/2 antibody binds to the acceptor beads. […] Both antibodies bound to phosphorylated ERK proteins, bringing the donor and acceptor beads into close proximity. All data were analyzed using the Dotmatics or GraphPad Prism software packages. Inhibition of ERK phosphorylation was assessed by determination of the absolute IC50 value, which is defined as the concentration of compound required to decrease the level of phosphorylated ERK proteins by 50% when compared to DMSO control.
In general terms: Bead proximity is the source of the signal in Alpha formats.

Data set [4] can be described thus: Microsomal stability assay, human liver microsomes (HLM). Type of data set: in vitro ADME. The settings on record: 0.5 mg/mL protein, 1 μM substrate, 37° C. As for the experimental part:
as §1, §2, §3

Data set [5] is described as follows: Plasma protein binding assay, mouse plasma (mPPB). In kind it is in vitro ADME. The settings on record: 5 μM, equilibrium dialysis 4 hours at 37° C. The procedure: (§4) Plasma Protein Binding Assay The plasma protein binding was determined by the equilibrium dialysis method. A known concentration of compound (5 μM) in previously frozen human or mouse plasma (Sera Labs) was dialysed against phosphate buffer using a RED device (Life Technologies) for 4 hours at 37° C. The concentration of compound in the protein containing (PC) and protein free (PF) sides of the dialysis membrane were determined by LC-MS/MS and the % free compound was determined by equation 4. Data analysis was performed using Excel (Microsoft, USA). % free=(1−((PC−PF)/PC))×100 (4) hPPB (human plasma protein binding) and mPPB (mouse plasma protein binding) results are described in Tables 1-2.
(Equilibrium dialysis compares concentrations on both sides of a semipermeable membrane.)

Data set [6] is described as follows: FeSSIF solubility assay. Type of data set: physicochemical. The settings on record: fed state simulated intestinal fluid (FeSSIF), thermodynamic from solid, pH 5 acetate buffer, 37° C., read-out: FESSIF Sol. As for the experimental part: FeSSIF Solubility Assay 1 mL of fed state simulated intestinal fluid (FeSSIF), prepared using FaSSIF/FeSSIF/FaSSGF powder (Biorelevant.com) and pH 5 acetate buffer, was added to 1.0 mg of compound and then incubated for 24 h (Bioshake iQ, 650 rpm, 37° C.). Following filtration under positive pressure, the concentration of compound in solution was assessed by LC-UV in comparison to the response for a calibration standard of known concentration (250 μM). FeSSIF solubility results are described in Tables 1-2.

A short description of data set [7]: Plasma protein binding assay, human plasma (hPPB). To be noted: 5 μM, equilibrium dialysis 4 hours at 37° C. In kind it is in vitro ADME. As for the experimental part: as §4
Setting [8] is: HCT-116, HCT116 cells, 2 hr, Abs.

Usually microsomal CLint stands for the capacity of the preparation to metabolise the compound, expressed as a volume cleared per time. `O=C1CCc2c(Oc3ccc4c(c3)CC(c3cc(-c5ccc(Cl)cc5)n[nH]3)CO4)ccnc2N1` (stereo not shown) [Compound 39] yielded a Sol in data set [1] of less than 1.2 mg/L. Moreover, in data set [2], the microsomal CLint at 1 μM stood at 15.4 µL/min/mg.
The corresponding values for `COc1ccc(-c2cc(C3COc4ccc(Oc5ccnc6c5CCC(=O)N6)cc4C3)[nH]n2)cc1` (stereo not shown) [Compound 43] are less than 1.2 mg/L and 23.2 µL/min/mg.
For `O=C1CCc2c(Oc3ccc4c(c3)CC(c3nc(-c5ccnc(C6CC6)c5)c[nH]3)CO4)ccnc2N1` (stereo not shown) [Compound 119, 5-[3-[4-(2-cyclopropyl-4-pyridyl)-1H-imidazol-2-yl]chroman-6-yl]oxy-3,4-dihydro-1H-1,8-naphthyridin-2-one], in data set [3] (setting [8]), the IC50 is 724 nM. Further, the intrinsic clearance (microsomal CLint) at 1 μM in data set [2] (37° C.) came to 35.8 µL/min/mg; in data set [4] it was 74.2 µL/min/mg. For the same molecule, in data set [5], the “mPPB (% free)” value came out at 0.9 % free. Further, the solubility thermodynamic at 24 h in data set [6] was less than 1.2 µg/mL. Moreover, the “hPPB (% free)” value in data set [7] is listed as 0.6 % free.
As to `CC(C)c1cc(-c2c[nH]c(C3COc4ccc(Oc5ccnc6c5CCC(=O)N6)cc4C3)n2)ccn1` (stereo not shown) [Compound 120, 5-[3-[4-(2-isopropyl-4-pyridyl)-1H-imidazol-2-yl]chroman-6-yl]oxy-3,4-dihydro-1H-1,8-naphthyridin-2-one], the IC50 in data set [3] (setting [8]) was 955 nM. Besides, the figures for the microsomal CLint at 1 μM in data set [2] (37° C.) and in data set [4] were 89 µL/min/mg and 190 µL/min/mg, respectively. The “mPPB (% free)” value in data set [5] was determined as 0.6 % free. Further, in data set [6], the solubility thermodynamic at 24 h was 1.3 µg/mL (≈ 2.7 µM). In addition, the “hPPB (% free)” value in data set [7] is listed as 0.9 % free.
Regarding `CC(C)(C)c1cc(-c2c[nH]c(C3COc4ccc(Oc5ccnc6c5CCC(=O)N6)cc4C3)n2)ccn1` (stereo not shown) [Compound 121, 5-[3-[4-(2-tert-butyl-4-pyridyl)-1H-imidazol-2-yl]chroman-6-yl]oxy-3,4-dihydro-1H-1,8-naphthyridin-2-one], in data set [3] (setting [8]), the IC50 is more than 1000 nM. Moreover, the microsomal CLint at 1 μM in data set [2] (37° C.) is 137 µL/min/mg; in data set [4], 207 µL/min/mg. Moreover, the “mPPB (% free)” value in data set [5] was determined as 0.4 % free. For the same molecule, in data set [6], the solubility thermodynamic at 24 h was 38.2 µg/mL (≈ 77.1 µM). Besides, the “hPPB (% free)” value in data set [7] is recorded as 0.4 % free.
As for `Cn1cnc2cc(-c3c[nH]c(C4COc5ccc(Oc6ccnc7c6CCC(=O)N7)cc5C4)n3)ccc21` (stereo not shown) [Compound 129, 5-[3-[4-(1-methylbenzimidazol-5-yl)-1H-imidazol-2-yl]chroman-6-yl]oxy-3,4-dihydro-1H-1,8-naphthyridin-2-one], the IC50 in data set [3] (setting [8]) was more than 1000 nM. In addition, in data set [6], the solubility thermodynamic at 24 h is 16.7 µg/mL (≈ 33.9 µM).
As to `Cn1ncc2cc(-c3c[nH]c(C4COc5ccc(Oc6ccnc7c6CCC(=O)N7)cc5C4)n3)ccc21` (stereo not shown) [Compound 131, 5-[3-[4-(1-methylindazol-5-yl)-1H-imidazol-2-yl]chroman-6-yl]oxy-3,4-dihydro-1H-1,8-naphthyridin-2-one], in data set [3] (setting [8]), the IC50 was more than 1000 nM. Moreover, the solubility thermodynamic at 24 h in data set [6] was 12.2 µg/mL (≈ 24.8 µM).
The corresponding values for `CC(C)N1CCc2nc(C3COc4ccc(Oc5ccnc6c5CCC(=O)N6)cc4C3)[nH]c2C1` (stereo not shown) [Compound 133, 5-[3-(5-isopropyl-3,4,6,7-tetrahydroimidazo[4,5-c]pyridin-2-yl)chroman-6-yl]oxy-3,4-dihydro-1H-1,8-naphthyridin-2-one] are more than 1000 nM and 661 µg/mL (≈ 1440 µM).
On to `CC(=O)N1CCc2nc(C3COc4ccc(Oc5ccnc6c5CCC(=O)N6)cc4C3)[nH]c2C1` (stereo not shown) [Compound 135, 5-[3-(5-acetyl-3,4,6,7-tetrahydroimidazo[4,5-c]pyridin-2-yl)chroman-6-yl]oxy-3,4-dihydro-1H-1,8-naphthyridin-2-one], for which the IC50 in data set [3] (HCT-116, 2 h) was more than 1000 nM. Moreover, the solubility thermodynamic at 24 h in data set [6] is 33.2 µg/mL (≈ 72.3 µM).
On to `c1ccc(-c2c[nH]c(C3COc4ccc(Oc5ccnc(NC6CCC6)c5)cc4C3)n2)cc1` (stereo not shown) [Compound 142, N-cyclobutyl-4-[3-(4-phenyl-1H-imidazol-2-yl)chroman-6-yl]oxy-pyridin-2-amine], for which the IC50 in data set [3] (setting [8]) was more than 1000 nM. For the same molecule, the solubility thermodynamic at 24 h in data set [6] is 135 µg/mL (≈ 309 µM).
Take `CC(C(=O)Nc1cc(Oc2ccc3c(c2)CC(c2nc(-c4ccccc4)c[nH]2)CO3)ccn1)N1CCOCC1` (stereo not shown) [Compound 150, 2-morpholino-N-[4-[3-(4-phenyl-1H-imidazol-2-yl)chroman-6-yl]oxy-2-pyridyl]propanamide]: the IC50 in data set [3] (HCT-116, 2 h) is more than 1000 nM. Also, the solubility thermodynamic at 24 h in data set [6] is 235 µg/mL (≈ 448 µM).
With `O=C1CCc2c(Oc3ccc4c(c3)CN(c3nc5ccccc5[nH]3)CC4)ccnc2N1` [Compound 159, 5-[[2-(1H-benzimidazol-2-yl)-3,4-dihydro-1H-isoquinolin-7-yl]oxy]-3,4-dihydro-1H-1,8-naphthyridin-2-one], the IC50 in data set [3] (setting [8]) was more than 1000 nM. The microsomal CLint at 1 μM in data set [2] (37° C.) was found to be 34.4 µL/min/mg; in data set [4], 19.8 µL/min/mg. Besides, the “mPPB (% free)” value in data set [5] is listed as 0.5 % free. Also, the solubility thermodynamic at 24 h in data set [6] is less than 1 µg/mL. The “hPPB (% free)” value in data set [7] stood at 1.0 % free.
With `CCCc1ccc2[nH]c(N3CCc4ccc(Oc5ccnc6c5CCC(=O)N6)cc4C3)nc2c1` [Compound 161, 5-[[2-(5-propyl-1H-benzimidazol-2-yl)-3,4-dihydro-1H-isoquinolin-7-yl]oxy]-3,4-dihydro-1H-1,8-naphthyridin-2-one], the IC50 in data set [3] (setting [8]) is 562 nM. Moreover, in data set [6], the solubility thermodynamic at 24 h is less than 1.1 µg/mL.
The corresponding values for `O=C1CCc2c(Oc3ccc4c(c3)CN(c3nc5cc(-c6ccccc6)ccc5[nH]3)CC4)ccnc2N1` [Compound 162, 5-[[2-(5-phenyl-1H-benzimidazol-2-yl)-3,4-dihydro-1H-isoquinolin-7-yl]oxy]-3,4-dihydro-1H-1,8-naphthyridin-2-one] are more than 1000 nM and 13.7 µg/mL (≈ 28.1 µM).
The matching figures for `Cc1cc(-c2ccc3[nH]c(N4CCc5ccc(Oc6ccnc7c6CCC(=O)N7)cc5C4)nc3c2)n(C)n1` [Compound 163]: more than 1000 nM and less than 1.3 µg/mL.
